# From patent US9539280B2, “Cartilage production promoter and prophylactic or therapeutic agent for diseases associated with cartilage damage” (NATIONAL UNIVERSITY CORPORATION TOTTORI UNIVERSITY, priority 2009, dated 2017)
# Entries after “also recorded” stand apart in the source; their conditions may differ.
# Key:
# Assay type in all cases: in vivo, rabbit
# glycosaminoglycan = assay: Histological observation, staining with alcian blue and image analysis
# Experimental: (§1) As animal specimens, groups of female white rabbits (weight: about 2.0 kg) were used, the number of the rabbits in each of the groups being 3. The rabbits were habituated to the environment for one week from the time of delivery. Thereafter, 0.1 mg/kg of medetomidine was subcutaneously injected into each of the rabbits, and 25 mg/kg of Ketalar was intramuscularly injected thereto. About each of the rabbit specimens subjected to the injection anesthesia, the left knee joint was shaved, and then disinfected. Thereafter, approaching from the outside of the knee joint, the articular capsule was opened and the knee joint was exposed completely by shifting the patella to the inside. With reference to the experiment of Tamai et al. (Carbohydrate Polymers, 2002, vol. 48, pp. 369-378), three holes of 2 mm in diameter and 4 mm in depth were bored with a hand-drill at the proximal trochlear groove, distal trochlear groove, and the medial trochlear ridge. Thereafter, the sites were sufficiently rinsed, and then the articular capsule was sutured with 3-0PDS (polydioxanone). […]
# (§2) The left femur of each of the damaged models in Example 1 was recovered, and then fixed with a 10% neutral buffered formalin aqueous solution (formaldehyde solution). […] The number of pixels in which a target color tone occupied was measured. […]
# proteoglycan = assay: Histological observation, staining with safranin-O and image analysis
# Experimental: as §1, §2
# [1] = tested on: damaged models (holes bored at proximal trochlear groove, distal trochlear groove and medial trochlear ridge of left knee joint); assay: Macroscopic observation of the degree of healing in cartilage damaged models; conditions: after 3 weeks
# Experimental: As animal specimens, groups of female white rabbits (weight: about 2.0 kg) were used, the number of the rabbits in each of the groups being 3. The rabbits were habituated to the environment for one week from the time of delivery. Thereafter, 0.1 mg/kg of medetomidine was subcutaneously injected into each of the rabbits, and 25 mg/kg of Ketalar was intramuscularly injected thereto. About each of the rabbit specimens subjected to the injection anesthesia, the left knee joint was shaved, and then disinfected. Thereafter, approaching from the outside of the knee joint, the articular capsule was opened and the knee joint was exposed completely by shifting the patella to the inside. With reference to the experiment of Tamai et al. (Carbohydrate Polymers, 2002, vol. 48, pp. 369-378), three holes of 2 mm in diameter and 4 mm in depth were bored with a hand-drill at the proximal trochlear groove, distal trochlear groove, and the medial trochlear ridge. Thereafter, the sites were sufficiently rinsed, and then the articular capsule was sutured with 3-0PDS (polydioxanone). The subcutaneous tissue and the skin were simultaneously sutured with stainless steel wires. […] The degree of healing of each of the damages was scored on the basis of Table 1, and evaluated. […] About each of the damaged model groups, the degree of healing was evaluated on the basis of the criterion in Example 2. […]
# [2] = Observation of side effects during fucoidan administration; conditions: 1 g fucoidan in 50 mL water every day by natural intake, 3 weeks, female white rabbits
# Experimental: From the day of the operation, initially every day, water (50 mL) in which 1 g of a fucoidan was dissolved were dosed to the rabbits in the fucoidan-administered group by natural intake. Thereafter, water was given to the rabbits to drink freely. This was continued for 3 weeks. Only water was given to the rabbits in the control group.
# [3] = Example 3, FIG. 6, vs control group, t-test
substance,measurement,setting,value
fucoidan,image analysis of alcian blue-stained images (glycosaminoglycan),glycosaminoglycan; [3],significantly higher value
same,alcian blue staining of repaired regions (glycosaminoglycan content),"glycosaminoglycan; Example 3, FIGS. 2 and 3, proximal and distal trochlear groove, microscope",a large amount of glycosaminoglycan was contained
same,image analysis of safranin-O-stained images (proteoglycan),proteoglycan; [3],significantly higher value
same,safranin-O staining of repaired regions (proteoglycan content),"proteoglycan; Example 3, FIGS. 4 and 5, proximal and distal trochlear groove, microscope",a large amount of proteoglycan was contained
same,degree of healing (macroscopic observation),"[1]; Example 2, FIG. 1, vs control group",many of the damages were satisfactorily cured; also recorded: good therapeutic results
same,tissue in the damaged sites,"[1]; Example 2, control filled with collagen fibers, fibroblasts",substituted with chondroblasts and cartilage tissues
same,signs of side effects,[2],no signs of side effects
